Consider eight compounds from ChEMBL document CHEMBL1201862, “PubChem BioAssay data set” (2004).

Among the test systems are A498; ACHN; CAKI-1; CCRF-CEM; COLO 205; EKVX; HL-60; HOP-92; HT-29; IGROV-1; LOX IMVI; NCI-H522; OVCAR-3; SF-539; SK-MEL-2; SK-MEL-5; UO-31; HOP-62; OVCAR-5; UACC-257.
Common to all, as to assay: NCI tumour cell line growth inhibition, 48 h

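Grown in 96-well plates, cells were treated for 48 hours with each compound at five concentrations. Insufficient inhibition: endpoint recorded as highest concentration tested. The concentration for 50% growth inhibition is given as GI50.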 Calls of active or inactive are those of the source. Cut-off read from the data, not from the text of the source: active = GI50 up to about 1.1 µM and inactive = higher.

As for `COc1cccc(C2C(C(=O)O)=C(CO)Oc3cc4c(cc32)OCO4)c1` (centres undefined), the GI50 in the assay on A498, with ACHN, in the assay on CAKI-1, in the assay with CCRF-CEM, in the assay on COLO 205 and with EKVX was > 100 µM (inactive) throughout. Also, the GI50 in the assay with HL-60, in the assay on HOP-92, in the assay with HT-29, in the assay with IGROV-1, in the assay with LOX IMVI and in the assay on NCI-H522 was > 100 µM (inactive) in each case. For the same compound, the GI50 in the assay with OVCAR-3, in the assay on SF-539, with SK-MEL-2, in the assay with SK-MEL-5 and in the assay on UO-31 was > 100 µM (inactive) each time.
With `O=C(Nc1cccc2ccccc12)Nn1cnnc1`, the GI50 in the assay on A498, with ACHN, with CAKI-1, in the assay with CCRF-CEM, in the assay with COLO 205 and in the assay with EKVX was > 100 µM (inactive) in each case. Besides, the GI50 in the assay on HL-60, in the assay on HOP-62, in the assay on HOP-92, in the assay with HT-29, with IGROV-1 and with LOX IMVI was > 100 µM (inactive) throughout. Also, the GI50 in the assay on NCI-H522, in the assay on OVCAR-3, in the assay on OVCAR-5, with SF-539, with SK-MEL-2 and in the assay with SK-MEL-5 was > 100 µM (inactive) in each case. Moreover, the GI50 with UACC-257 and with UO-31 was > 100 µM (inactive) in each case.
As for `CCCCN1CSC(=S)N(Cc2ccccc2)C1`, the GI50 in the assay on A498 is > 62.1 µM (inactive); with ACHN, > 100 µM (inactive); with CAKI-1, > 100 µM (inactive); in the assay with CCRF-CEM it was 4.47 µM (inactive); with COLO 205, 23.2 µM (inactive); in the assay on EKVX it was 30 µM (inactive). Also, the GI50 in the assay on HL-60 was 3.56 µM (inactive); in the assay on HOP-62, > 100 µM (inactive); in the assay with HOP-92, > 75.9 µM (inactive); with HT-29 it was 58.6 µM (inactive); in the assay on IGROV-1, 82.2 µM (inactive); in the assay with LOX IMVI, 36.9 µM (inactive). In addition, the GI50 with NCI-H522 is 23.9 µM (inactive); in the assay with OVCAR-3, 33.7 µM (inactive); in the assay on OVCAR-5 it was > 100 µM (inactive); in the assay with SF-539, > 100 µM (inactive); in the assay on SK-MEL-2, > 59.3 µM (inactive); in the assay with SK-MEL-5, 23.4 µM (inactive). Moreover, the results for the GI50 with UACC-257 and in the assay on UO-31 were 20.9 µM (inactive) and > 100 µM (inactive), respectively.
For the compound `Nc1nnc(CCC(=O)Nc2cc(Cl)ccc2Cl)n1N`, the GI50 in the assay with A498, in the assay with ACHN, in the assay on CAKI-1, in the assay with CCRF-CEM, with COLO 205 and in the assay with EKVX was > 100 µM (inactive) each time. The GI50 with HL-60, in the assay with HOP-62, in the assay with HOP-92, in the assay with HT-29, in the assay on IGROV-1 and in the assay with LOX IMVI was > 100 µM (inactive) each time. The GI50 with NCI-H522, in the assay on OVCAR-3, in the assay with OVCAR-5, with SF-539, in the assay with SK-MEL-2 and in the assay with SK-MEL-5 was > 100 µM (inactive) throughout. Further, the GI50 in the assay on UACC-257 and with UO-31 was > 100 µM (inactive) in each case.
For the compound `C=C1c2nc3ccccc3n2C=C(c2ccccc2)N1c1ccc([N+](=O)[O-])cc1`, the GI50 in the assay with A498 was 8.38 µM (inactive); in the assay on ACHN it was 1.67 µM (inactive); in the assay on CAKI-1 it was 9.2 µM (inactive); with CCRF-CEM, 9.46 µM (inactive); in the assay on COLO 205 it was 6.52 µM (inactive); in the assay with EKVX it was 4.85 µM (inactive). Also, the GI50 is 7.01 µM (inactive) in the assay with HL-60; 4.92 µM (inactive) in the assay with HOP-62; 3.9 µM (inactive) in the assay with HOP-92; 3.47 µM (inactive) with HT-29; 4.84 µM (inactive) in the assay on IGROV-1; 5.36 µM (inactive) with LOX IMVI. In addition, the GI50 with NCI-H522 is 3.67 µM (inactive); in the assay with OVCAR-3, 7.06 µM (inactive); in the assay on OVCAR-5, 10.7 µM (inactive); in the assay on SF-539, 1.05 µM (active); in the assay with SK-MEL-2, 17.7 µM (inactive); with SK-MEL-5, 4.02 µM (inactive). The results for the GI50 with UACC-257 and in the assay on UO-31 were 15.3 µM (inactive) and 3.3 µM (inactive), respectively.
In the case of `C=C1C(=O)O[C@@H]2[C@H]3O[C@]3(C)CCC=C(C)CC[C@@H]12`, the GI50 in the assay with A498 was 7.05 µM (inactive); in the assay on CAKI-1 it was 9.31 µM (inactive); with CCRF-CEM it was 8.38 µM (inactive); in the assay on COLO 205, 14.5 µM (inactive); in the assay with EKVX it was 17.4 µM (inactive); with HL-60, 4.69 µM (inactive). For the same compound, the GI50 is 49.1 µM (inactive) with HOP-62; 13.6 µM (inactive) in the assay with HOP-92; 23.6 µM (inactive) with HT-29; 21.1 µM (inactive) in the assay with IGROV-1; 8.24 µM (inactive) in the assay on LOX IMVI; 5.47 µM (inactive) in the assay on NCI-H522. Further, the GI50 in the assay on OVCAR-3 was 18.4 µM (inactive); in the assay with OVCAR-5 it was 34.2 µM (inactive); with SF-539, 19 µM (inactive); with SK-MEL-2 it was 16.2 µM (inactive); in the assay with SK-MEL-5 it was 17.5 µM (inactive); in the assay with UACC-257 it was 14.9 µM (inactive). Further, in the assay on UO-31, the GI50 is 42 µM (inactive).
On to `CCCn1cc2c3c(cccc31)C1C=C(C)CN(C)C1C2` (centres undefined), for which the GI50 with A498 is 13.7 µM (inactive); with CAKI-1, 11.8 µM (inactive); in the assay on CCRF-CEM it was 3.67 µM (inactive); in the assay with COLO 205, 9.98 µM (inactive); in the assay with EKVX, 18 µM (inactive); with HL-60, 1.51 µM (inactive). In addition, the GI50 in the assay on HOP-62 was 31.7 µM (inactive); in the assay on HOP-92 it was 11.7 µM (inactive); in the assay with HT-29 it was 12.9 µM (inactive); in the assay with IGROV-1, 27 µM (inactive); with LOX IMVI it was 13.6 µM (inactive); in the assay with NCI-H522, 20.7 µM (inactive). The GI50 in the assay on OVCAR-3 is 20.4 µM (inactive); with OVCAR-5 it was 25.2 µM (inactive); in the assay on SF-539 it was 25.6 µM (inactive); in the assay on SK-MEL-2 it was 29.1 µM (inactive); in the assay with SK-MEL-5, 11.3 µM (inactive); in the assay on UACC-257 it was 7.69 µM (inactive). Besides, the GI50 in the assay with UO-31 was 9.71 µM (inactive).
As for `Cc1cc2oc3c(ccc(=O)n3C)c(=O)c2c(C)c1Cl`, the GI50 was 46.8 µM (inactive) in the assay on A498; 57.4 µM (inactive) in the assay with ACHN; 67.5 µM (inactive) in the assay with CAKI-1; 38.1 µM (inactive) in the assay with CCRF-CEM; 73.5 µM (inactive) with COLO 205; 52 µM (inactive) in the assay on EKVX. The GI50 with HL-60 was 37.6 µM (inactive); in the assay with HOP-62, 49.7 µM (inactive); in the assay with HOP-92, 50.1 µM (inactive); in the assay on HT-29 it was 38.3 µM (inactive); in the assay with IGROV-1 it was 32.1 µM (inactive); with LOX IMVI it was 49.9 µM (inactive). Moreover, the GI50 in the assay with NCI-H522 is 62.7 µM (inactive); with OVCAR-3, 42.3 µM (inactive); with OVCAR-5 it was 72.9 µM (inactive); in the assay with SF-539, 23.8 µM (inactive); in the assay with SK-MEL-2, 40.6 µM (inactive); in the assay with SK-MEL-5, 29 µM (inactive). Moreover, the GI50 with UO-31 was 73.5 µM (inactive).
